Target: T1, human ME3 enzyme (Homo sapiens, UniProt Q16798)
T1 sequence (Q16798 1-604): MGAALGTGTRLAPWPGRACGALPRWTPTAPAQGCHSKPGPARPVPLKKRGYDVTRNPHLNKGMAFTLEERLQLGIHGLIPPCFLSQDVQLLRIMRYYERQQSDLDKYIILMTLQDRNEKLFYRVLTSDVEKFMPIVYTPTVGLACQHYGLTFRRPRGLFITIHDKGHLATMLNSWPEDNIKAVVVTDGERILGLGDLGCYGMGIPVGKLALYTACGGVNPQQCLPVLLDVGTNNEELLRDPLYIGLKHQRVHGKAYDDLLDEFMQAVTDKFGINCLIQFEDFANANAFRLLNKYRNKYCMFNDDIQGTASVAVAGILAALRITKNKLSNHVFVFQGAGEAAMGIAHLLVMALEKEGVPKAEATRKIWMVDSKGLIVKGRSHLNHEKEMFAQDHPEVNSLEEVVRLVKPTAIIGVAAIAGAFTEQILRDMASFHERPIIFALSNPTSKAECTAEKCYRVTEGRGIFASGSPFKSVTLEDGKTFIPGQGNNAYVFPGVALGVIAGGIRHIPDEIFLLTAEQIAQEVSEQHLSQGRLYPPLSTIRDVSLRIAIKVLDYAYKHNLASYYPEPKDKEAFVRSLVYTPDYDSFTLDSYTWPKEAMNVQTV
Assay: ME3 inhibition assay (diaphorase/resazurin coupled fluorescence)
Assay type: biochemical
Details: 10 μM compound concentration; read-out: Malic Enzyme 3 % inhibition (10 μM)
Description: ME3 catalyzes the oxidative decarboxylation of malate to pyruvate with conversion of the co-factor β-NADP+ to NADPH. In the fluorescence assay, a coupled reaction is set up wherein an enzyme, Diaphorase, utilizes NADPH generated by ME3, to convert the dye resazurin to a fluorescent molecule resorufin.
The enzyme activity inhibition assay is set up in a 200 μL final reaction volume in a 96-well plate. As per the experimental design, 2 μL of the test compounds at 100× the desired concentration (10 μM) in DMSO were added to the respective wells with 178 μL of assay buffer (50 mM Tris-HCl pH 7.5, 10 mM MnCl2, 3 mM L-malate, 50 μM Resazurin and 0.025 mg/ml Diapharose). The 96-well plate was incubated on a plate shaker at room temperature for 15 minutes protected from light. The well contents were gently mixed by adding 10 μL of 20 nM human ME3 enzyme to the wells and the plate was incubated on a shaker at room temperature for 5 minutes protected from light. Suitable enzyme only and no enzyme controls were included in the experiment. The enzyme reaction was started by adding 10 μL of 1 mM D-NADP+. The reaction was gently mixed and the plate was initially left on a shaker at room temperature for ˜7 minutes protected from light. Later, the plate was incubated without shaking at room temperature for 3 hours. At the end of 3 hours, the fluorescence of the wells was measured at excitation 540 nm and emission 600 nm.

Structure (SMILES)	inhibition at 10 µM [%]
O=C(O)c1ccccc1C(=O)N1CCN(c2ccc(O)cn2)CC1 [I.111, 2-[4-(5-Hydroxy-pyridin-2-yl)-piperazine-1-carbonyl]-benzoic acid]	> 90
O=C(c1cc(-c2ccccc2)nc(N2CCOCC2)c1)N1CCN(c2ccc(O)cc2)CC1 [I.33, [4-(4-Hydroxy-phenyl)-piperazin-1-yl]-(2-morpholino-6-phenyl-4-pyridyl)-methanone]	> 90
N#Cc1cc(N2CCN(C(=O)c3cc(-c4ccccc4)nc(-c4ccccc4)c3)CC2)ccc1O [I.37, 5-[4-(2,6-diphenylpyridine-4-carbonyl)piperazin-1-yl]-2-hydroxy-benzonitrile]	50 to 69
CCCCn1cc(C(=O)N2CCN(c3ccc(O)cc3)CC2)c2ccccc21 [I.18, (1-Butyl-1H-indol-3-yl)-[4-(4-hydroxy-phenyl)-piperazin-1-yl]-methanone]	> 90
CCCCOc1ccc(CCC(=O)N2CCN(c3ccc(O)cc3)CC2)cc1 [I.13, 3-(4-Butoxy-phenyl)-1-[4-(4-hydroxy-phenyl)-piperazin-1-yl]-propan-1-one]	> 90
COCCN1CCC(C(=O)N2CCN(c3ccc(O)cc3)CC2)CC1 [I.7, [4-(4-Hydroxy-phenyl)-piperazin-1-yl]-[1-(2-methoxy-ethyl)-piperidin-4-yl]-methanone]	> 90
O=C(C1CC1)N1CCN(c2ccc(O)cn2)CC1 [I.119, Cyclopropyl-[4-(5-hydroxy-2-pyridyl)-piperazin-1-yl]methanone]	> 90
O=C(/C=C/C1CCCCC1)N1CCN(c2ccc(O)cn2)CC1 [I.120, (E)-3-Cyclo-hexyl-1-[4-(5-hydroxy-2-pyridyl)-piperazin-1-yl]prop-2-en-1-one]	> 90
Cc1ccc(CCC(=O)N2CCN(c3ccc(O)cn3)CC2)cc1 [I.110, 1-[4-(5-Hydroxy-pyridin-2-yl)-piperazin-1-yl]-3-p-tolyl-propan-1-one]	> 90
O=C(c1ccc(Cl)s1)N1CCN(c2ccc(O)cn2)CC1 [I.76, (5-Chloro-thiophen-2-yl)-[4-(5-hydroxy-pyridin-2-yl)-piperazin-1-yl]-methanone]	> 90
O=C(O)c1cc(N2CCN(C(=O)Cc3ccccc3)CC2)ccc1O [I.32, 2-hydroxy-5-(4-phenylacetyl-piperazin-1-yl)-benzoic acid]	70 to 89
O=C(c1ccnc(N2CCOCC2)c1)N1CCN(c2ccc(O)cc2)CC1 [I.35, [4-(4-Hydroxy-phenyl)-piperazin-1-yl]-(2-morpholino-4-pyridyl)-methanone]	> 90
O=C(c1ccc(Br)s1)N1CCN(c2ccc(O)cn2)CC1 [I.87, (5-Bromo-thiophen-2-yl)-[4-(5-hydroxy-pyridin-2-yl)-piperazin-1-yl]-methanone]	> 90
O=C(c1cc(Cl)nc(N2CCOCC2)c1)N1CCN(c2ccc(O)cc2)CC1 [I.36]	> 90
O=C(c1cc(-c2ccccc2)nc(-c2ccccc2)c1)N1CCN(c2ccc(O)cc2)CC1 [I.20, (2,6-diphenyl-4-pyridyl)-[4-(4-hydroxyphenyl)piperazin-1-yl]methanone]	> 90
CC(=O)N[C@@H](Cc1ccccc1)C(=O)N1CCN(c2ccc(O)cc2)CC1 [I.16, N-{(1S)-1-Benzyl-2-[4-(4-hydroxy-phenyl)-piperazin-1-yl]-2-oxoethyl}-acetamide]	> 90
O=C(c1n[nH]c2ccccc12)N1CCN(c2ccc(O)cc2)CC1 [I.8, [4-(4-Hydroxy-phenyl)-piperazin-1-yl]-(1H-indazol-3-yl)-methanone]	> 90
COCCOc1ccc2[nH]cc(C(=O)N3CCN(c4ccc(O)cc4)CC3)c2c1 [I.10, [4-(4-Hydroxy-phenyl)-piperazin-1-yl]-[5-(2-methoxy-ethoxy)-1H-indol-3-yl]-methanone]	> 90
O=C(c1cccc2[nH]ccc12)N1CCN(c2ccc(O)cc2)CC1 [I.30, [4-(4-Hydroxy-phenyl)-piperazin-1-yl]-(1H-indol-4-yl)-methanone]	> 90

Structure (SMILES)	inhibition at 10 µM [%]
O=C(c1cc2ccccc2c2ccccc12)N1CCN(c2ccc(O)cc2)CC1 [I.22, [4-(4-Hydroxy-phenyl)-piperazin-1-yl]-phenanthren-9-yl-methanone]	> 90
O=C(CCc1ccccc1Br)N1CCN(c2ccc(O)cn2)CC1 [I.102, 3-(2-Bromo-phenyl)-1-[4-(5-hydroxy-pyridin-2-yl)-piperazin-1-yl]-propan-1-one]	> 90
O=C(c1cccc2c1ccn2Cc1ccccc1)N1CCN(c2ccc(O)cc2)CC1 [I.26, (1-benzylindol-4-yl)-[4-(4-hydroxyphenyl)piperazin-1-yl]methanone]	> 90
O=C(C(=O)N1CCN(c2ccc(O)cc2)CC1)c1ccccc1 [I.17, 1-[4-(4-hydroxyphenyl)-piperazin-1-yl]-2-phenyl-ethane-1,2-dione]	> 90
COC(=O)C1C2CCC(O2)C1C(=O)N1CCN(c2ccc(O)cn2)CC1 (stereo not shown) [I.104, 3-[4-(5-Hydroxy-pyridin-2-yl)-piperazine-1-carbonyl]-7-oxa-bicyclo-[2.2.1]heptane-2-carboxylic acid methyl ester]	70 to 89
O=C(c1ccnc(-c2ccccc2)c1)N1CCN(c2ccc(O)cc2)CC1 [I.34, [4-(4-Hydroxy-phenyl)-piperazin-1-yl]-(2-phenyl-4-pyridyl)-methanone]	> 90
CN(CC(=O)N1CCN(c2ccc(O)cn2)CC1)S(=O)(=O)c1cccc2cccnc12 [I.89, quinoline-8-sulfonic acid {2-[4-(5-hydroxypyridin-2-yl)-piperazin-1-yl]-2-oxo-ethyl}-methylamide]	> 90
O=C(C(=O)N1CCN(c2ccc(O)cn2)CC1)c1c[nH]c2ccccc12 [I.106, 1-[4-(5-Hydroxy-pyridin-2-yl)-piperazin-1-yl]-2-(1H-indol-3-yl)-ethane-1,2-dione]	> 90
O=C(c1nc2ccccc2[nH]1)N1CCN(c2ccc(O)cn2)CC1 [I.86, (1H-Benzo-imidazol-2-yl)-[4-(5-hydroxy-pyridin-2-yl)-piperazin-1-yl]-methanone]	> 90
O=C(O)c1cc(N2CCN(C(=O)c3cc(-c4ccccc4)nc(-c4ccccc4)c3)CC2)ccc1O [I.38, 5-[4-(2,6-Diphenyl-pyridine-4-carbonyl)-piperazin-1-yl]-2-hydroxy-benzoic acid]	> 90
CC(C)Cc1ccc(CCC(=O)N2CCN(c3ccc(O)cn3)CC2)cc1 [I.90, 1-[4-(5-Hydroxy-pyridin-2-yl)-piperazin-1-yl]-3-(4-isobutyl-phenyl)-propan-1-one]	> 90
O=C(/C=C/c1ccc([N+](=O)[O-])cc1)N1CCN(c2ccc(O)cn2)CC1 [I.77, (E)-1-[4-(5-Hydroxy-pyridin-2-yl)-piperazin-1-yl]-3-(4-nitro-phenyl)-propenone]	> 90
COc1ccccc1CCC(=O)N1CCN(c2ccc(O)cn2)CC1 [I.109, 1-[4-(5-Hydroxy-pyridin-2-yl)-piperazin-1-yl]-3-(2-methoxy-phenyl)-propan-1-one]	> 90
CN(C)c1ccc(CCC(=O)N2CCN(c3ccc(O)cn3)CC2)cc1 [I.108, 3-(4-Dimethyl-aminophenyl)-[4-(5-hydroxy-pyridin-2-yl)-piperazin-1-yl]-propan-1-one]	> 90
O=C(CCC(c1ccccc1)c1ccccc1)N1CCN(c2ccc(O)cn2)CC1 [I.112, 1-[4-(5-Hydroxy-2-pyridyl)-piperazin-1-yl]-4,4-diphenyl-butan-1-one]	> 90
Cc1ccc(C(=O)N2CCN(c3ccc(O)cn3)CC2)cc1Nc1nccc(-c2cccnc2)n1 [I.85, [4-(5-hydroxy-pyridin-2-yl)-piperazin-1-yl]-[4-methyl-3-(4-pyridin-3-yl-pyrimidin-2-ylamino)-phenyl]-methanone]	> 90
Cc1cn(-c2cc(C(=O)N3CCN(c4ccc(O)cn4)CC3)cc(C(F)(F)F)c2)cn1 [I.81, [4-(5-Hydroxy-pyridin-2-yl)-piperazin-1-yl]-[3-(4-methyl-imidazol-1-yl)-5-trifluoro-methylphenyl]-methanone]	> 90
O=C(O)C1C2CCC(O2)C1C(=O)N1CCN(c2ccc(O)cn2)CC1 (stereo not shown) [I.105, 3-[4-(5-Hydroxy-pyridin-2-yl)-piperazine-1-carbonyl]-7-oxa-bicyclo-[2.2.1]heptane-2-carboxylic acid]	> 90

From patent US11225480B2, “Malic enzyme inhibitors” (SUN PHARMA ADVANCED RESEARCH COMPANY LTD, priority 2019, dated 2022)
